Reference: patent publication US20180092845A1, “ENZYME-RESPONSIVE NANOPARTICLES” (THE REGENTS OF THE UNIVERSITY OF CALIFORNIA, priority 2015, published 2018)

What was measured:
in vivo = conditions: female, nu/nu, mouse, in vivo, iv
Protocol: (§1) Mouse weight was recorded once daily until all animals in the cohort returned to, or surpassed, their weight on the day of injection. […] Two additional cohorts (6 mice, 3 per group) were treated with 15 mg/kg and 30 mg/kg of clinically formulated paclitaxel (a 6 mg/mL suspension in 1:1 ethanol:Cremophor EL®, diluted with 1×DPBS prior to injection).

healthy nu/nu mice [1] = assay: in vivo; conditions: 30 mg/kg IV; listed as clinically formulated paclitaxel
Protocol: as §1

healthy nu/nu mice [2] = conditions: suspension in 1:1 Cremophor EL to ethanol; literature; cited from earlier work

## CC(=O)O[C@H]1C(=O)[C@@]2(C)[C@H]([C@H](OC(=O)c3ccccc3)[C@]3(O)C[C@H](OC(=O)[C@H](O)[C@@H](NC(=O)c4ccccc4)c4ccccc4)C(C)=C1C3(C)C)[C@]1(OC(C)=O)CO[C@@H]1C[C@@H]2O [PTX, paclitaxel]
In vivo
  LD50: 30 mg/kg
  MTD: 15 mg/kg
Healthy nu/nu mice [1]
  lethality: 1 out of the 3 animals died within 30 minutes post-injection and also died within an hour of injection
Healthy nu/nu mice [2]
  MTD in mice previously established: 10 to 30 mg/kg
